Experiment [1] relates to transgenic Arabidopsis thaliana comprising antisense construct of AtKAPAS gene. Particulars: pots filled with sands containing 1 mM biotin; Basta treated 5 times; transformed seeds. The procedure: The pots were treated with Basta 5 times, and then investigated for the growth of Arabidopsis thaliana in every pot.
Experiment [2] concerns the target T1, protein expressed by AtKAPAS gene (KAPA synthase) (Arabidopsis thaliana, UniProt Q8GW43, DEL236-242/L243I).
T1 construct: contains 1410 bp size open reading frame encoding 469 amino acids; made in house; host or cells: E. coli BL21-Gold(DE) transformed with pCKAPA (AtKAPAS cDNA in pCAL-n)
The experiment is classed as biochemical. The following applies: substrate pimeroyl CoA, Lineweaver-Burk plot, 30° C., pH 7.5, 340 nm. The protocol:
The enzyme activity of the protein was measured at 340 nm using a spectrophotometer (Backman DU series 60 spectrophotometer) adjusted at 30° C. according to a method of Alexeev et al.(Alexeev et al. J. Mol. Biol., 284:401-419, 1998). […] In every reaction solution, the concentration of the protein was 10 μM. L-alanine and pimeroyl CoA were also added into each reaction solution ([…]). Results were analyzed using the Soft-Pac Module kinetics software. Before the analysis, enzyme samples were dialyzed with 20 mM potassium phosphate buffer (pH 7.5) containing 100 μM PLP (pyridoxal 5′-phosphate) at 4° C. for 2 hours. The cuvette containing other substances but the purified protein was used as a control group for the measurement of the enzyme activity.
The changes of reaction speed according to substrate concentration were measured, and then represented by Lineweaver-Burkes plot (see FIG. 4).

Experiment [3] has as its target KAPA syntase of Bacillus sphaericus (Lysinibacillus sphaericus, UniProt P22806). The following applies: read-out: Km value to pimeroyl CoA; KAPA synthase of Bacillus sphaericus; cited from earlier work.
A further experiment has as its target KAPA syntase of E. coli (Escherichia coli, UniProt P12998). Particulars: KAPA synthase of E. coli; read-out: Km value to pimeroyl CoA; cited from earlier work.

T1 sequence (Q8GW43 other isoform, or with tags, fused parts or gaps DEL236-242/L243I): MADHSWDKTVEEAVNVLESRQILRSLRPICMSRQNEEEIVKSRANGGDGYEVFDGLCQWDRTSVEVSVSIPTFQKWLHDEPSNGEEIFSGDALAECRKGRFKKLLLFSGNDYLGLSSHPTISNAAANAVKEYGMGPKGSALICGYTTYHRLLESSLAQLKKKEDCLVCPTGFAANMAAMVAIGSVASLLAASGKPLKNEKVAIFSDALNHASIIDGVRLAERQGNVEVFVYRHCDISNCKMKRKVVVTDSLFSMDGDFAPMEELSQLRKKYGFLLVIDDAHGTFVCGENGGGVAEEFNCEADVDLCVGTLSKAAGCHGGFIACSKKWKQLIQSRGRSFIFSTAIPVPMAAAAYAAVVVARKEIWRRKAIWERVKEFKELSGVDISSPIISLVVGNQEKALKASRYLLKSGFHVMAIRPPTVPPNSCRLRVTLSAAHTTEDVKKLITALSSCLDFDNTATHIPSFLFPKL
Chain of KAPA syntase of E. coli (P12998 whole entry): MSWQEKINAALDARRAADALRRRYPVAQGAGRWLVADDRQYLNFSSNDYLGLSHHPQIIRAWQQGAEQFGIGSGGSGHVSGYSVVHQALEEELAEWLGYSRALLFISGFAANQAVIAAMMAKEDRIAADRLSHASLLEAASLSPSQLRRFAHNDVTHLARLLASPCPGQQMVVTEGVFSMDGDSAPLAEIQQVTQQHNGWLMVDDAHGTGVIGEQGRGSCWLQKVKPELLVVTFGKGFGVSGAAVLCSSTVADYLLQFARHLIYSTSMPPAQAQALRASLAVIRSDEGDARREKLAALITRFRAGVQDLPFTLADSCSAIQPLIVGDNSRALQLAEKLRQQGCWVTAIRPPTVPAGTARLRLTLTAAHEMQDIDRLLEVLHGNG
Chain of KAPA syntase of Bacillus sphaericus (P22806 whole entry): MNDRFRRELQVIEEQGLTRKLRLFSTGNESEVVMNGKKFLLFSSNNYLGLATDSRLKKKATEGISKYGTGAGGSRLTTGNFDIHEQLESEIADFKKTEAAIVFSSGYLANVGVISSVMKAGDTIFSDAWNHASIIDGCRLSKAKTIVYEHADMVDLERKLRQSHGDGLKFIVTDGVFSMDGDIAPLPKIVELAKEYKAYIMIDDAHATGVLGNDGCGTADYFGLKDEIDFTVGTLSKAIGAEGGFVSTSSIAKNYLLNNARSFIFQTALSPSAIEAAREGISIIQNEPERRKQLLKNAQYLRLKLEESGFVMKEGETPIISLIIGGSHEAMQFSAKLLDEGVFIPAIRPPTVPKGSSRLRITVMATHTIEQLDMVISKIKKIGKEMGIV

As to `O=C(O)CCCC[C@@H]1SC[C@@H]2NC(=O)N[C@@H]21` [biotin], in experiment [1], the “Individual plants grown up” value turned out to be 16.
As for `CC(C)(COP(=O)(O)OP(=O)(O)OC[C@H]1O[C@@H](n2cnc3c(N)ncnc32)[C@H](O)[C@@H]1OP(=O)(O)O)[C@@H](O)C(=O)NCCC(=O)NCCSC(=O)CCCCCC(=O)O` [pimeroyl CoA, pimeloyl CoA], the Km was 0.54 µM in experiment [2] (read-out: Km value), 2500 µM in experiment [3] and 500 µM on KAPA syntase of E. coli. Also, in experiment [2], the Vmax value came to 7.93.

Usually Km stands for the concentration of substrate that gives half-maximal velocity.

The values above are taken from patent publication US20060168675A1, “Novel polypetide having function of 7-keto-8-aminopelargonic acid synthase of plant and method for inducing growth inhibition and lethality by suppressing expression of the polypeptide” (GENOMINE, INC, priority 2002, published 2006).
